Reference: ChEMBL document CHEMBL4732103, “Development of Indoleamine 2,3-Dioxygenase 1 Inhibitors for Cancer Therapy and Beyond: A Recent Perspective” (J Med Chem, 2020)
Blank lines part the entries; values can stand above or below the molecule they belong to.

Experiments:
[1] = biological target: T1, Indoleamine 2,3-dioxygenase 1 (Homo sapiens, UniProt P14902); experiment: Inhibition of human IDO1
[2] = biological target: T1, Indoleamine 2,3-dioxygenase 1; experiment: Inhibition of human IDO1 incubated for 60 mins using L-tryptophan as substrate by absorbance method
[3] = biological target: T1, Indoleamine 2,3-dioxygenase 1; experiment: Binding affinity to recombinant human IDO1 expressed in Escherichia coli BL21 incubated for 4 hrs by UV-Visible Spectroscopy
[4] = biological target: T1, Indoleamine 2,3-dioxygenase 1; experiment: Inhibition of IDO1 in IFN-gamma stimulated human HeLa cells assessed as effect on kynurenine level incubated for 48 hrs by p-dimethylaminobenzaldehyde based assay
[5] = biological target: T1, Indoleamine 2,3-dioxygenase 1; experiment: Inhibition of human N-terminal His-tagged IDO1 expressed in Escherichia coli M15 incubated for 1 hr by UV-Vis spectrophotometric method
[6] = biological target: T1, Indoleamine 2,3-dioxygenase 1; experiment: Inhibition of human IDO1 in IFN-stimulated human MDA-MB-231 cells preincubated for 48 hrs followed by L-tryptophan addition and measured after 5 hrs by UV-Vis spectrophotometric method; type: cell-based
[7] = biological target: T1, Indoleamine 2,3-dioxygenase 1; experiment: Inhibition of recombinant human IDO1 expressed in Escherichia coli BL21(DE3) assessed as effect on kynurenine level using L-tryptophan as substrate incubated for 1 hr by Ehrlich's reagent based assay
[8] = biological target: T1, Indoleamine 2,3-dioxygenase 1; experiment: Inhibition of IDO1 in human HeLa cells; type: cell-based
HEK-293T = experiment: Cytotoxicity against HEK293T cells; type: cell-based; conditions: Homo sapiens
[9] = biological target: T1, Indoleamine 2,3-dioxygenase 1; experiment: Inhibition of IDO1 (unknown origin)
[10] = biological target: T1, Indoleamine 2,3-dioxygenase 1; experiment: Inhibition of IDO1 in IFN-gamma stimulated human HeLa cells centrifuged for 10 mins
[11] = biological target: T1, Indoleamine 2,3-dioxygenase 1; experiment: Inhibition of IDO1 in human SK-OV-3 cells assessed as effect on KYN level using L-tryptophan as substrate incubated for 18 hrs by 4-(dimethylamino)benzaldehyde based absorbance method; type: cell-based
[12] = Inhibition of IDO1/TDO2 in human BT-549 cells assessed as suppression of kynurenine using L-tryptophan as substrate for 18 hrs by 4-(dimethylamino)benzaldehyde based absorbance method; type: cell-based; conditions: BT-549, 18 h
[13] = biological target: T1, Indoleamine 2,3-dioxygenase 1; experiment: Inhibition of human His6-tagged IDO1 expressed in Escherichia coli BL21 incubated for 90 mins using L-tryptophan as substrate by fluorescence assay
[14] = biological target: Indoleamine 2,3-dioxygenase 1 (Mus musculus, UniProt P28776); experiment: Inhibition of mouse IDO1 expressed in mouse P1.HTR cells assessed as inhibition of Kyn production incubated for 16 hrs by HPLC analysis; type: cell-based
[15] = biological target: T1, Indoleamine 2,3-dioxygenase 1; experiment: Inhibition of IDO1 (unknown origin) by cell-based assay
[16] = biological target: T1, Indoleamine 2,3-dioxygenase 1; experiment: Inhibition of human 6His/FLAG-tagged/Avi/TEV-fused IDO1 expressed in Escherichia coli by absorbance method
[17] = biological target: T1, Indoleamine 2,3-dioxygenase 1; experiment: Inhibition of IDO1 in IFN-gamma stimulated human HeLa cells assessed as effect on KYN level incubated for 48 hrs by rapidfire-mass spectrometry
[18] = Cytotoxicity against human HeLa cells incubated for 48 hrs by MTT assay; type: cell-based
[19] = biological target: Protein cereblon/Indoleamine 2,3-dioxygenase 1 (Homo sapiens, UniProt P14902+Q96SW2); experiment: Induction of CRBN-mediated IDO1 degradation in IFNgamma-stimulated human HeLa cells incubated for 24 hrs by Western blot analysis
[20] = biological target: T1, Indoleamine 2,3-dioxygenase 1; experiment: Inhibition of IDO1 in IFN-gamma stimulated human HeLa cells
[21] = biological target: T1, Indoleamine 2,3-dioxygenase 1; experiment: Inhibition of recombinant human IDO1 expressed in Escherichia coli BL21(DE3) incubated for 15 mins by Dixon plot analysis
[22] = biological target: Tryptophan 2,3-dioxygenase (Homo sapiens, UniProt P48775); experiment: Inhibition of recombinant human TDO expressed in Escherichia coli Rosetta (DE3) pLysS incubated for 20 mins by Dixon plot analysis
[23] = biological target: T1, Indoleamine 2,3-dioxygenase 1; experiment: Inhibition of human IDO1 using D-Trp as substrate by absorbance method

T1 sequence (P14902 whole entry): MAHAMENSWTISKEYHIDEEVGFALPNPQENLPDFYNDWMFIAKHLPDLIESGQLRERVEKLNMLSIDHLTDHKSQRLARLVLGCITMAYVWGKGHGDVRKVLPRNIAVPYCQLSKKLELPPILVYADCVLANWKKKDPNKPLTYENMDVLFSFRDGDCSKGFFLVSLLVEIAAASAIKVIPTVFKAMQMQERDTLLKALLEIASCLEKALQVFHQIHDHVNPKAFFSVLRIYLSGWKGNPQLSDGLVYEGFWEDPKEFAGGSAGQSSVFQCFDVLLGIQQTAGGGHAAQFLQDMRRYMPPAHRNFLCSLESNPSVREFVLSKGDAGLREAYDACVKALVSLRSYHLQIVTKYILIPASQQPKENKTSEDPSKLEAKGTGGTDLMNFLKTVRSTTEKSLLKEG
Chain of Protein cereblon/Indoleamine 2,3-dioxygenase 1 (P14902 whole entry): as above
Chain of Protein cereblon/Indoleamine 2,3-dioxygenase 1 (Q96SW2 whole entry): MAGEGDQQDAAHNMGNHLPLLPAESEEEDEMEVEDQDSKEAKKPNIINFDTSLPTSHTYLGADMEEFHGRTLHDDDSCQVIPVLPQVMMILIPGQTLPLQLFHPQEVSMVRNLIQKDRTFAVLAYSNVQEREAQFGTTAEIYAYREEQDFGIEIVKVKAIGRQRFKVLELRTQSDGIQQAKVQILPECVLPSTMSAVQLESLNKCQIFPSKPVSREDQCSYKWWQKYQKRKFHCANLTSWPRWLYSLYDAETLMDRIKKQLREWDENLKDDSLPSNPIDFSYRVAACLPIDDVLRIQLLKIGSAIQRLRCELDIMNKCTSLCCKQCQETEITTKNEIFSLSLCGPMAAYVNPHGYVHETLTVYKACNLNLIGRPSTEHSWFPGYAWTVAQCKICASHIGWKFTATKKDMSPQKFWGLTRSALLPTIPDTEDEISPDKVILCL
Chain of Indoleamine 2,3-dioxygenase 1 (Mus musculus, UniProt P28776) (P28776 whole entry): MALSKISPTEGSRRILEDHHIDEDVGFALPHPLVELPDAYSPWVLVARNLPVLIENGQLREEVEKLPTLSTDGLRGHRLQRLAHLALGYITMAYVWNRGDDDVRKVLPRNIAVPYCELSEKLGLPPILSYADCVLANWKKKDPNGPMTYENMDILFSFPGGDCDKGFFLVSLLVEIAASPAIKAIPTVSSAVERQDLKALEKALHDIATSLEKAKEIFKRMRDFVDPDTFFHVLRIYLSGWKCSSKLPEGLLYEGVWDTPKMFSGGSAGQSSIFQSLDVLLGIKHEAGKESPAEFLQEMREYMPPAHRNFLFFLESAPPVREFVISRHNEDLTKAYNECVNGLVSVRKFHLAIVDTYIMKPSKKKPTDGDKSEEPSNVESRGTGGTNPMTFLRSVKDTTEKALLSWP
Chain of Tryptophan 2,3-dioxygenase (P48775 whole entry): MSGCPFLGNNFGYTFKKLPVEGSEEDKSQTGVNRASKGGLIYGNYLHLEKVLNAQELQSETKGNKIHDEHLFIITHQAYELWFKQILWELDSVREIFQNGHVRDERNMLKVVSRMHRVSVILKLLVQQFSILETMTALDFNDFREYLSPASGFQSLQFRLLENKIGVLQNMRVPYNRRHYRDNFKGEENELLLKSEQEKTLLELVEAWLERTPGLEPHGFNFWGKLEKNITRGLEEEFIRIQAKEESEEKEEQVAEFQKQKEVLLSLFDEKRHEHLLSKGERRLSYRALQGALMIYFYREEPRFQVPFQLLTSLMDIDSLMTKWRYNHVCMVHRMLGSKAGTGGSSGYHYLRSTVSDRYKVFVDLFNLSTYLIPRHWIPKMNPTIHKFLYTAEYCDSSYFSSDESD

SMILES: O=C(O)C[C@H]1CNC(=S)c2cc(Br)c(Br)n21
IC50 [2]: 92000 nM

SMILES: Clc1ccc(Nc2cn[nH]n2)cc1
Kd [3]: 2300 nM

SMILES: NS(=O)(=O)NCCNC(=O)c1n[nH]nc1-c1ccc(F)cc1
IC50 [5]: 92 nM
EC50 [6]: 74 nM

SMILES: N#Cc1ccc(C(F)(F)F)c(SCC(=O)Nc2ccc(F)c(Cl)c2)n1
IC50 [7]: 840 nM

SMILES: c1ccc2c(c1)[nH]c1cnccc12 [NORHARMANE]
Ki [9]: 180000 nM

SMILES: CC(C)CN(c1ccc(-c2c(C(=O)O)ccc3ccccc23)cc1NC(=O)Nc1ccc(Br)cc1F)C1CCCCC1
IC50 [10]: 2.6 nM

SMILES: C[C@@H](NC(=O)c1ccc(F)cc1)c1ccc2c(c1)CCN2C(=O)C1CCOCC1 [LY-3381916]
IC50 [15]: 7 nM

SMILES: CC(C)CN(CC(C)C)c1ccc([C@H](C)CC(=O)O)cc1NCNc1nc(C(F)(F)F)ns1
IC50 [16]: 39 nM
IC50 [17]: 5.9 nM

SMILES: NC(=O)c1n[nH]nc1-c1ccc(F)c(F)c1
IC50 [5]: 110 nM
EC50 [6]: 74 nM

SMILES: O=C1CCC(N2C(=O)c3cccc(NCCOCCOCCOCCOCCOCCOCCOCCNCCNc4nonc4/C(=N/O)Nc4ccc(F)c(Br)c4)c3C2=O)C(=O)N1 (stereo not drawn)
CC50 at 48 h [18]: 37400 nM
DC50 [19]: 2840 nM

SMILES: Nc1nonc1/C(=N/O)N1Cc2ccccc2C1
IC50 [20]: 1570 nM

SMILES: O=C(c1ccccc1)C(c1ccccc1)C1(O)C(=O)Nc2c(Cl)cc(Cl)cc21 (stereo not drawn)
Ki [21]: 1000 nM
Ki [22]: 4000 nM

SMILES: O=C(Cc1cccc(N(CCCl)CCCl)c1)NCCNc1nonc1/C(=N/O)Nc1ccc(F)c(Br)c1
EC50 [4]: 270 nM
IC50 [23]: 130 nM

More lines, main results first:

IC50 [1]: 1 nM
SMILES: O=C1c2nnn(Cc3ccccc3)c2C(=O)c2nnn(Cc3ccccc3)c21

IC50 [4]: 1010 nM
SMILES: C=C1OC2=C(C(=O)c3ccccc3C2=O)C1(C)C

IC50 [8]: 11200 nM
IC50 [1]: 130 nM
SMILES: COC1=C(OC)C(=O)C(Nc2cccc(Br)c2)=CC1=O
IC50 (HEK-293T): 28000 nM

IC50 [11]: > 40000 nM
IC50 [12]: 3420 nM
SMILES: CC1=C(CC(=O)c2sccc2C)C(=O)c2ccccc2C1=O

IC50 [13]: 3000 nM
SMILES: O=C(CSc1nnc2scc(-c3ccccc3)n12)Nc1ccc2c(c1)OCO2

IC50 [14]: 11400 nM
SMILES: Cc1c(C)n(CC(O)CNc2ccccc2)c2ccccc12 (stereo not drawn)
